Measured values taken from article PMC12320831, “Synthesis and Biological Evaluation of New Chalcogen Semicarbazone (S, Se) and Their Azole Derivatives against Chagas Disease” (Journal of Medicinal Chemistry, 2024).
Counter-ions that a name gives are not always drawn. Like-named read-outs stand apart in the source and are kept apart here.

Assays:
[1] = Host cell cytotoxicity (C2C12 viability); assay type: cell-based, Mouse; conditions: mouse; for viability at 48 h, 10 µM: < 50% viability considered cytotoxic; for CC50 at 48 h: viability calculated at 10 μM
Protocol: Antiparasitic activity and cytotoxicity of compounds were determined as described before (da Silva et al., Boudreau et al.). Mouse myoblasts cell line C2C12 (ATCCCRL-1772), were maintained in high glucose (4.5 g/L glucose) Dulbecco’s modified Eagle’s medium (DMEM Gibco), supplemented with 1% penicillin–streptomycin 10,000 U/mL (Gibco) and 5% fetal bovine serum (FBS, Sigma-Aldrich) at 37 °C with 5% CO2. parasites (CAI/72 strain, DTU TcI) were maintained by weekly coinfection with C2C12 cells. For all activity assays, C2C12 cells were infected at a 10:1 parasite-to-cell ratio with culture-derived trypomastigotes, which were harvested from the supernatant of infected C2C12 cells. After adding compounds to 384-well black clear-bottom plates (Greiner cat. no. 781091), trypomastigotes (7000 parasites/well) and C2C12 cells (700 cells/well) were seeded in a total volume of 50 μL of DMEM per well in the 384-well plates. Compounds were first tested at 10 μM. […] After 48 h at 37 °C and 5% CO2, plates were fixed with 4% formaldehyde solution for at least 1 h, washed with 1× PBS, and stained with 5 μg/mL of 4′,6-diamidino-2-phenylindole (DAPI) for at least 1 h prior to reading. Plates were imaged with the automated ImageXpress MicroXL microscope (Molecular Devices) and analyzed by MetaXpress software (Molecular Devices) using a custom module optimized for this assay. Infection levels (parasites per host cell) were normalized to the positive control (40 μM BNZ) and negative control (DMSO). Antiparasitic activity (EC50) ± standard deviation (SD) and host cell cytotoxicity (C2C12 viability) values were determined from the DRC using Prism software (GraphPad Software, La Jolla, CA). Every assay has three biological replicates, each in triplicates (n = 9 data points).

[2] = system: T. cruzi CAI/72 strain; assay: Antiparasitic activity in C2C12 cells infected with T. cruzi CAI/72 (image-based assay); assay type: cell-based; conditions: Trypanosoma cruzi; for EC50: mean of three experiments in triplicate (n = 9) ± SD
Protocol: Antiparasitic activity and cytotoxicity of compounds were determined as described before (da Silva et al., Boudreau et al.). Mouse myoblasts cell line C2C12 (ATCCCRL-1772), were maintained in high glucose (4.5 g/L glucose) Dulbecco’s modified Eagle’s medium (DMEM Gibco), supplemented with 1% penicillin–streptomycin 10,000 U/mL (Gibco) and 5% fetal bovine serum (FBS, Sigma-Aldrich) at 37 °C with 5% CO2. parasites (CAI/72 strain, DTU TcI) were maintained by weekly coinfection with C2C12 cells. For all activity assays, C2C12 cells were infected at a 10:1 parasite-to-cell ratio with culture-derived trypomastigotes, which were harvested from the supernatant of infected C2C12 cells. After adding compounds to 384-well black clear-bottom plates (Greiner cat. no. 781091), trypomastigotes (7000 parasites/well) and C2C12 cells (700 cells/well) were seeded in a total volume of 50 μL of DMEM per well in the 384-well plates. Compounds were first tested at 10 μM. […] Plates were imaged with the automated ImageXpress MicroXL microscope (Molecular Devices) and analyzed by MetaXpress software (Molecular Devices) using a custom module optimized for this assay. Infection levels (parasites per host cell) were normalized to the positive control (40 μM BNZ) and negative control (DMSO). Antiparasitic activity (EC50) ± standard deviation (SD) and host cell cytotoxicity (C2C12 viability) values were determined from the DRC using Prism software (GraphPad Software, La Jolla, CA). Every assay has three biological replicates, each in triplicates (n = 9 data points).

[3] = target: T1, recombinant Cz (cruzain) (Trypanosoma cruzi, UniProt P25779); assay: biochemical; conditions: read-out: Cz inhibition (%), 10 µM
T1 construct: Cz was expressed and purified as described in da Silva et al; made in house
Protocol: The screening assay was performed using 1 nM of Cz diluted in 0.1 M sodium acetate pH 5.5, 1 mM dithiothreitol (DTT), and 0.01% Triton X-100. Cz was expressed and purified as described in da Silva et al. The reaction starts after 10 min incubating the enzyme with the compounds (10 μM), when adding 2.5 μM of the substrate Z-FR-AMC final concentration (Z-Phe-Arg-amidomethylcoumarin, Sigma-Aldrich, C9521) diluted in the same assay buffer (final volume of 30 μL). The experiment was performed for 10 min. […] The DRC was performed with at least nine different concentrations of the inhibitors, diluted by 2-fold serial dilution, ranging from […] to 10 μM.
All experiments were accomplished in a 384-well black microplate, using a Synergy HTX (Biotek) plate reader at 25 °C with absorption/emission wavelengths of 360/460 nm. All assays were performed in triplicate wells and DMSO was used as a vehicle control. Enzymatic activity was measured and normalized to DMSO controls, and the inhibitor E-64 (10 μM) was used as a positive control for all assays. All experiments were performed in triplicates, with at least two independent assays (n = 6 data points). IC50 values were determined through nonlinear regression. Obtained data were treated and analyzed using GraphPad Prism 9.0 (GraphPad Software, La Jolla, California).

[4] = C2C12 myoblast cells infected with trypomastigotes
[5] = intracellular amastigotes in C2C12 cells, 48 h, read-out: EC50 Tc CAI/72
[6] = 10 µM, C2C12 infected cells, read-out: Anti-Tc CAI/72 activity (%)
[7] = C2C12, read-out: Anti-Tc CAI/72 activity (%)

T1 sequence (P25779 123-337 limits assumed): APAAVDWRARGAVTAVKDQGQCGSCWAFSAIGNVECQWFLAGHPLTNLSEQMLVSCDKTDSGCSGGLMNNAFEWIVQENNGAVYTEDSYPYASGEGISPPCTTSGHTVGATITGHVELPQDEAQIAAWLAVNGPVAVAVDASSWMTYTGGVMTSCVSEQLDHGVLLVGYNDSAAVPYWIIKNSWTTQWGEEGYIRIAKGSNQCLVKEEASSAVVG

O=C(Cn1ccnc1[N+](=O)[O-])NCc1ccccc1 [BZ, Benznidazole, reference compound]
viability at 48 h, 10 µM [1, 4]: > 100%
CC50 at 48 h [1, 4]: > 10 µM
inhibition at 40 µM ([2]; 40 µM (BZ), C2C12 infected cells, read-out: Anti-Tc CAI/72 activity (%)): 81.7%
EC50 [2, 5]: 5.79 ± 1.2 µM

C/C(=N\NC(N)=S)c1ccc(C)cc1 [Compound S1a, (E)-2-(1-(4-Tolyl)ethylidene)hydrazine-1-carbothioamide]
viability at 48 h, 10 µM [1]: > 100%
inhibition at 10 µM [3]: 74.8%
inhibition at 10 µM [2, 6]: 42.3%

COc1ccc(/C(C)=N/NC(N)=S)cc1 [Compound S1b, (E)-2-(1-(4-Methoxyphenyl)ethylidene)hydrazine-1-carbothioamide]
viability at 48 h, 10 µM [1, 4]: > 100%
inhibition at 10 µM [3]: 87.1%
inhibition at 10 µM [2, 6]: 23.2%

C/C(=N\NC(N)=S)c1ccc([N+](=O)[O-])cc1 [Compound S1c, (E)-2-(1-(4-Nitrophenyl)ethylidene)hydrazine-1-carbothioamide]
viability at 48 h, 10 µM [1, 4]: > 100%
inhibition at 10 µM [3]: 97.6%
inhibition at 10 µM [2, 6]: 20.6%

C/C(=N\NC(N)=S)c1ccc(C(F)(F)F)cc1 [Compound S1d, (E)-2-(1-(4-(Trifluoromethyl)phenyl)ethylidene)hydrazine-1-carbothioamide]
viability at 48 h, 10 µM [1, 4]: 93.1%
inhibition at 10 µM [3]: 85.8%
inhibition at 10 µM [2, 6]: 43.8%

C/C(=N\NC(N)=S)c1ccc(Br)cc1 [Compound S1f, (E)-2-(1-(4-Bromophenyl)ethylidene)hydrazine-1-carbothioamide]
viability at 48 h, 10 µM [1, 4]: > 100%
inhibition at 10 µM [3]: 97.1%
inhibition at 10 µM [2, 6]: 45.4%

COc1cccc(/C(C)=N/N=C(/N)S)c1 [Compound S1g, (E)-2-(1-(3-Methoxyphenyl)ethylidene)hydrazine-1-carbothioamide]
viability at 48 h, 10 µM [1, 4]: > 100%
inhibition at 10 µM [3]: 95.3%
inhibition at 10 µM [2, 6]: 22.3%

C/C(=N\NC(N)=S)c1ccc(F)c(F)c1 [Compound S1j, (E)-2-(1-(3,4-Difluorophenyl)ethylidene)hydrazine-1-carbothioamide]
viability at 48 h, 10 µM [1, 4]: > 100%
inhibition at 10 µM [3]: 99.8%
inhibition at 10 µM [2, 6]: 49.9%

COc1ccc(/C(C)=N/NC(N)=S)c(OC)c1 [Compound S1k, (E,Z)-2-(1-(2,4-Dimethoxyphenyl)ethylidene)hydrazine-1-carbothioamide]
viability at 48 h, 10 µM [1, 4]: > 100%
inhibition at 10 µM [3]: 39.3%
inhibition at 10 µM [2, 6]: 0.7%

C/C(Cc1cccc(Cl)c1)=N\NC(N)=S [Compound S1m, (E)-2-(1-(3-Chlorophenyl)propan-2-ylidene)hydrazine-1-carbothioamide]
viability at 48 h, 10 µM [1, 4]: > 100%
CC50 at 48 h [1, 4]: > 10 µM
inhibition at 10 µM [3]: 72.3%
inhibition at 10 µM [2, 6]: 69.4%
EC50 [2, 5]: 2.92 ± 0.16 µM

COc1ccc(C/C(C)=N/NC(N)=S)cc1 [Compound S1n, (E)-2-(1-(4-Methoxyphenyl)propan-2-ylidene)hydrazine-1-carbothioamide]
viability at 48 h, 10 µM [1, 4]: > 100%
inhibition at 10 µM [3]: 56.2%
inhibition at 10 µM [2, 6]: 34.5%

C/C(=N\NC(N)=S)c1csc2ccccc12 [Compound S1o, (E)-2-(1-(Benzo[b]thiophen-3-yl)ethylidene)hydrazine-1-carbothioamide]
viability at 48 h, 10 µM [1, 4]: > 100%
inhibition at 10 µM [3]: 100%
inhibition at 10 µM [2, 6]: 23.1%

C/C(=N\NC(N)=S)c1cc2ccccc2o1 [Compound S1p, (E)-2-(1-(Benzofuran-2-yl)ethylidene)hydrazine-1-carbothioamide]
viability at 48 h, 10 µM [1, 4]: > 100%
inhibition at 10 µM [3]: 99.3%
inhibition at 10 µM [2, 6]: 49.7%

C/C(=N\Nc1nc(C)cs1)c1ccc(C)cc1 [Compound S2a, (E)-4-Methyl-2-(2-(1-(4-tolyl)ethylidene)hydrazineyl)thiazole Hydrochloride]
viability at 48 h, 10 µM [1, 4]: > 100%
inhibition at 10 µM [3]: 36.8%
inhibition at 10 µM [2, 6]: 12.5%

COc1ccc(/C(C)=N/Nc2nc(C)cs2)cc1 [Compound S2b, (E)-2-(2-(1-(4-Methoxyphenyl)ethylidene)hydrazineyl)-4-methylthiazole Hydrochloride]
viability at 48 h, 10 µM [1, 4]: > 100%
inhibition at 10 µM [3]: 37.5%
inhibition at 10 µM [2, 6]: 23.5%

C/C(=N\Nc1nc(C)cs1)c1ccc([N+](=O)[O-])cc1 [Compound S2c, (E)-4-Methyl-2-(2-(1-(4-nitrophenyl)ethylidene)hydrazineyl)thiazole Hydrochloride]
viability at 48 h, 10 µM [1, 4]: 99.2%
inhibition at 10 µM [3]: 96.7%

C/C(=N\Nc1nc(C)cs1)c1ccc(C(F)(F)F)cc1 [Compound S2d, (E)-4-Methyl-2-(2-(1-(4-(trifluoromethyl)phenyl)ethylidene)hydrazineyl)thiazole Hydrochloride]
viability at 48 h, 10 µM [1, 4]: > 100%
inhibition at 10 µM [3]: 41.6%

C/C(=N\Nc1nc(C)cs1)c1ccc(C#N)cc1 [Compound S2e, (E)-4-(1-(2-(4-Methylthiazol-2-yl)hydrazineylidene)ethyl)benzonitrile Hydrochloride]
viability at 48 h, 10 µM [1, 4]: > 100%
inhibition at 10 µM [3]: 89.8%
inhibition at 10 µM [2, 6]: 22.4%

C/C(=N\NC(N)=[Se])c1ccc(F)c(F)c1 [Se1j, (E)-2-(1-(3,4-Difluorophenyl)ethylidene)hydrazine-1-carboselenoamide]
viability at 48 h, 10 µM [1]: 27.7%
inhibition at 10 µM [3]: 102%

COc1ccc(/C(C)=N/NC(N)=[Se])c(OC)c1 [Se1k, (E,Z)-2-(1-(2,4-Dimethoxyphenyl)ethylidene)hydrazine-1-carboselenoamide]
viability at 48 h, 10 µM [1]: 43.7%
inhibition at 10 µM [3]: 92.5%

COc1ccc(/C(C)=N/Nc2nc(C)c[se]2)c(OC)c1 [Se2k, (E,Z)-2-(2-(1-(2,4-Dimethoxyphenyl)ethylidene)hydrazineyl)-4-methyl-1,3-selenazole Hydrochloride]
viability at 48 h, 10 µM [1]: > 100%
inhibition at 10 µM [2, 7]: 38.1%

C/C(=N\Nc1nc(C)c[se]1)c1ccsc1 [Se2l, (E)-4-Methyl-2-(2-(1-(thiophen-3-yl)ethylidene)hydrazineyl)-1,3-selenazole Hydrochloride]
viability at 48 h, 10 µM [1]: > 100%
CC50 at 48 h [1]: > 10 µM
EC50 ([2]; C2C12, 48 h, read-out: EC50 Tc CAI/72, intracellular amastigotes in C2C12 cells, 48 h): 3.73 µM
inhibition at 10 µM [2, 7]: 50.4%

C/C(=N\Nc1nc(C)c[se]1)C12CC3CC(CC(C3)C1)C2 [Se2q, 2-(2-((E)-1-((3s)-Adamantan-1-yl)ethylidene)hydrazineyl)-4-methyl-1,3-selenazole]
viability at 48 h, 10 µM [1]: > 100%
inhibition at 10 µM [2, 7]: 40.6%
